Source: article PMC7462607 (eLife, 2020)
Several values for one entry are separate records, joined by “and”; a condition that tells them apart may be missing. Equal values may be shown once.

What was measured:
[1] = biological target: T1, FLAG-Avi-DDB1 and His-CDK12KD G731E/His-CCNKΔC (Homo sapiens, UniProt Q9NYV4, G731E); assay: AlphaScreen assay, G731E; assay type: binding; conditions: for AlphaScreen: G731E, raw signal
T1 construct: Human CDK12KD (residues 715–1052); made in house; host or cells: Sf9 or High Five (CDK12KD/CCNKΔC, co-infected with yeast CAK1); 293F with BirA (FLAG-Avi-DDB1)
Method: Biotinylated FLAG-Avi-DDB1 (3 µM) and 6xHis-CDK12KD/6xHis-CCNKΔC (WT or G731E/R mutants) (3 µM) were mixed in an assay buffer (50 mM HEPES, pH7.5, 300 mM NaCl, 0.5 mM TCEP, 0.1% NP-40, 0.1% BSA) and a serial dilution of HQ461.The protein-compound mix was transferred to 384-well plates (Corning, Corning, USA); 15 μL per well. After a 1 hr room temperature incubation, 10 µL of nickel chelate (Ni-NTA) acceptor beads (PerkinElmer, Waltham, USA, Waltham, USA, 6760619C) (1:100 diluted with assay buffer) was added per well. After incubation in the dark for 1 hr at room temperature, 10 μL of streptavidin donor beads (PerkinElmer, Waltham, USA, 6760619C) (1:100 diluted in assay buffer) was added per well. After another 1 hr incubation, AlphaScreen signal was measured on the EnVision multimode plate reader (PerkinElmer, Waltham, USA). For THZ531 competition, FLAG-Avi-DDB1, 6xHis-CDK12KD/6xHis-CCNKΔC mix was preincubated with 5 μM of THZ531 for 30 min on ice followed by the procedures described above.

CDK12KD/CCNKΔC = biological target: T2, CDK12KD/CCNKΔC (Homo sapiens, UniProt Q9NYV4); assay: Differential Scanning Fluorimetry (DSF), CDK12KD/CCNKΔC; assay type: binding; conditions: 50 µM HQ461, Sypro Orange; read-out: increase in melting temperature (Tm) of CDK12KD/CCNKΔC
T2 construct: Human CDK12KD (residues 715–1052); 6xHis (PreScission site) (N, cleaved yes); made in house; host or cells: Sf9 or High Five, co-infected with yeast CAK1
Method: CDK12KD/CCNKΔC (WT or G731E/R) and DDB1ΔBPB were diluted to 5 μM with DSF assay buffer (50 mM HEPES pH 7.5, 300 mM NaCl, 0.5 mM TCEP). 50 µM HQ461 or 10 µM HBx was added to diluted proteins (final DMSO concentration 0.25%). Twenty µL of protein-compound mix was aliquoted per qPCR tube (Labtidebiotech, Shanghai, China, P01-0803E) followed by the addition of 5 µL of 1:400 diluted SYPRO Orange (Sigma-Aldrich, MO, USA, S5692). After incubation on ice for 20 min, fluorescence measurements were performed using a Bio-Rad CFX96 Realtime PCR instrument. During the DSF experiment, the temperature was increased from 10°C to 95°C at an increment of 0.5 °C with equilibration time of 10 s at each temperature prior to measurement. Tm was defined as the temperature corresponding to the maximum value of the first derivative of fluorescence transition.

A549 cells = assay: Cell viability assay (CellTiter-Glo), A549; assay type: cell-based, Homo sapiens; conditions: for CellTiter-Glo (ATP): A549, raw signal, Rep 1-3
Method: Seven hundred A549 cells or 1,000 HCT-116 cells in 50 µL of medium were plated per well in 384-well flat clear bottom white polystyrene TC-treated microplates (Corning, Corning, USA). After overnight attachment, cells were dosed with a serial dilution of HQ461 with a D300e digital dispenser (Tecan, Männedorf, Switzerland). Cell survival was measured 72 hr later using CellTiter-Glo luminescent cell viability assay kit (Promega, Madison, USA) following vendor instructions. Luminescence was recorded by EnVison multimode plate reader (PerkinElmer, Waltham, USA). IC50 was determined with GraphPad Prism using baseline correction (by normalizing to DMSO control), the asymmetric (five parameter) equation, and least squares fit.

[2] = system: CDK12KD/CCNKΔC (WT or G731E/R); assay: Nano DSF; assay type: binding, human; conditions: increasing concentrations of HQ461
Method: CDK12KD/CCNKΔC (WT or G731E/R) or DDB1ΔBPB were diluted with DSF assay buffer (50 mM HEPES pH 7.5, 300 mM NaCl, 0.5 mM TCEP) to 3.6 µM and mixed with diluted HQ461 (final DMSO concentration 2%). Tryptophan fluorescence was measured using Tycho NT.6 (NanoTemper, South San Francisco, USA). During the thermal shift experiment, temperature was increased from 35°C to 95°C and fluorescence was scanned at 350 nm and 330 nm. Ti (inflection temperature of the unfolding transition) was calculated from the 350 nm/330 nm ratio.

T1 sequence (Q9NYV4 715-1052 G731E limits assumed): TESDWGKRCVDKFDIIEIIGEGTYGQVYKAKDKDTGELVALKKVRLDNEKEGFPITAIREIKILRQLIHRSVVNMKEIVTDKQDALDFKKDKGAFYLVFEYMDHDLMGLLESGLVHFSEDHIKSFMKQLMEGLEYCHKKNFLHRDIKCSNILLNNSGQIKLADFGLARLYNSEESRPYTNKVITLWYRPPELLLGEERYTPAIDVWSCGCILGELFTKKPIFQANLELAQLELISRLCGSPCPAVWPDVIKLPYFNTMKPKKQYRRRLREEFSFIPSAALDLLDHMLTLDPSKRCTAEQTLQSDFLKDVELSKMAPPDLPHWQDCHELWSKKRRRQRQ
T1 sequence (O75909 11-267 partner limits assumed): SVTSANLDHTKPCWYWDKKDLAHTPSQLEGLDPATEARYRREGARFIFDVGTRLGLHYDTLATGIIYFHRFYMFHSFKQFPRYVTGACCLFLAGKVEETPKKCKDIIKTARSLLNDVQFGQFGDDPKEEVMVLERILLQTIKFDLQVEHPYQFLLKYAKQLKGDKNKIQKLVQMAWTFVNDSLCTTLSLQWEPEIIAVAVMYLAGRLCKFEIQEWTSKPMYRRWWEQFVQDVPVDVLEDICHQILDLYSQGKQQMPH
T2 sequence (Q9NYV4 715-1052, stated change not applied): as the sequence (Q9NYV4 715-1052 G731E limits assumed) above, with E17G counted along it
T2 sequence (O75909 11-267 partner limits assumed): as the sequence (O75909 11-267 partner limits assumed) above

Cc1cccc(Nc2nc(CC(=O)Nc3ncc(C)s3)cs2)n1 [HQ461, 2-(2-((6-methylpyridin-2-yl)amino)thiazol-4-yl)-N-(5-methylthiazol-2-yl)acetamide]
AlphaScreen ([1]; HQ461 2.22e-6 M): 1248 and 1240 and 1185
AlphaScreen ([1]; HQ461 6.67e-6 M): 1251 and 1198 and 1100
AlphaScreen ([1]; HQ461 2e-5 M): 1233 and 1200 and 1143
AlphaScreen ([1]; HQ461 2.47E-07 M): 1234 and 1107 and 1145
AlphaScreen ([1]; HQ461 2.74E-08 M): 1248 and 1124 and 1169
AlphaScreen ([1]; HQ461 7.41E-07 M): 1137 and 1171 and 1109
AlphaScreen ([1]; HQ461 8.23E-08 M): 1304 and 1157 and 1110
complex formation with DDB1, G731E mutant ([1]; even with 20 µM of HQ461): did not form a complex with DDB1
ΔTm at 50 µM (CDK12KD/CCNKΔC): 1.4 °C
CellTiter-Glo (ATP) (A549 cells; HQ461 1.6e-6 M): 1.74E+06 and 1.39E+06 and 1.50E+06
CellTiter-Glo (ATP) (A549 cells; HQ461 3.12e-6 M): 360450 and 439670 and 341920
CellTiter-Glo (ATP) (A549 cells; HQ461 6.31e-6 M): 173530 and 234990 and 251210
CellTiter-Glo (ATP) (A549 cells; HQ461 1.25e-5 M): 146290 and 177880 and 172140
CellTiter-Glo (ATP) (A549 cells; HQ461 2.51e-5 M): 65570 and 94080 and 92090
CellTiter-Glo (ATP) (A549 cells; HQ461 2.00E-07 M): 4.81E+06 and 4.79E+06 and 4.78E+06
CellTiter-Glo (ATP) (A549 cells; HQ461 3.96E-07 M): 3.92E+06 and 3.86E+06 and 3.80E+06
CellTiter-Glo (ATP) (A549 cells; HQ461 4.80E-08 M): 4.68E+06 and 4.34E+06 and 4.06E+06
CellTiter-Glo (ATP) (A549 cells; HQ461 7.99E-07 M): 3.98E+06 and 3.60E+06 and 3.16E+06
CellTiter-Glo (ATP) (A549 cells; HQ461 9.99E-08 M): 3.91E+06 and 3.89E+06 and 3.96E+06
IC50 (A549 cells; Homo sapiens, A549, 72 hr, CellTiter-Glo): 1.3 µM
Tm of CDK12KD/CCNKΔC wild type or G731E/R mutants [2]: increased in an HQ461 concentration-dependent manner
